# Results published in patent EP4592286A1, “MACROCYCLIC NITROGEN-CONTAINING CROWN ETHER COMPOUND AND USE THEREOF AS PROTEIN KINASE INHIBITOR” (Artivila Biopharma, priority 2022, dated 2024).
# Legend:
# JAK2 = biological target: T1, JAK2 (Mus musculus, UniProt Q62120); assay: JAKs cell activity test: JAK2_pSTAT5 in IL-3-induced BAF3 cells; assay type: cell-based; conditions: pSTAT5, IL-3-induced BAF3 cells
# T1 construct: endogenous in cells; host or cells: BAF3
# Method: THP1 cells were collected by centrifugation, resuspended with 1×HBSS, counted and diluted to a certain cell density. They were inoculated in a 384-well plate and cultured in a saturated humidity incubator with 37 °C and 5% CO2. The compound (DMSO final volume of 0.3%) was added to THP1 cells (10 doses in duplicates) and cultured in a saturated humidity incubator with 37 °C and 5% CO2. hIL-4 was added to stimulate cells and cultured in a saturated humidity incubator with 37 °C and 5% CO2. The lysis solution was added and incubated at room temperature. According to the instructions of AlphaLISA SureFire Ultra p-STAT6 detection kit, the lysis solution was transferred to pSTAT6 detection system, and the ALPHA signal was read by PE Envision microplate reader. The inhibition rate Inh%=((DMSO-sample)/(DMSO-background))×100 was calculated. IC50 was obtained by fitting with GraphPad Prism non-linear regression equation, and y=Bottom+(Top-Bottom)/(1+10^((LogIC50-x)×hillslope)), where x was the concentration of the compound and y was the inhibition rate.
# JAK2_pSTAT5 was tesed in IL-3-induced BAF3 cells according to the above steps, and JAK3_pSTAT5 was tested in IL-2-induced CTLL-2 cells (without serum stimulation) according to the above steps.
# HCC-1187 cells = assay: CDK9 cell activity test (Cell Titer-GLO cell growth inhibition), HCC1187; assay type: cell-based; conditions: Homo sapiens, HCC1187, 72 h
# Method: (§1) In these experiments, the cell line MV-4-11 was cultured in IMDM culture solution (containing 100 U/mL penicillin and 0.1 g/L streptomycin), the cell line HCC1187 was cultured in RPMI-1640 culture solution (containing 100 U/mL penicillin and 0.1 g/L streptomycin) containing 10% fetal bovine serum, the cell line Mia Paca-2 was cultured in DMEM (containing 100 U/mL penicillin and 0.1 g/L streptomycin) containing 10% fetal bovine serum and 2.5% horse serum, and the cell line A375 was cultured in RPMI-1640 culture solution (containing 100 U/mL penicillin and 0.1 g/L streptomycin) containing 10% fetal bovine serum. All cells were cultured in a saturated humidity incubator with 37 °C and 5% CO2.
# (§2) When MV-4-11 cells, HCC-1187 cells, Mia Paca-2 cells and A375 cells grew to 80% -90% confleuncy, they were digested with trypsin, resuspended, counted and diluted to a certain cell density with complete medium, and inoculated into 96-well plate at 100 µL/well. […] The cells were lysed by mixing evenly for 2 minutes using a shaker, incubated at room temperature for 60 minutes to stabilize the chemiluminescence signal, and the chemiluminescence was read by PE EnVision microtiter plate reader. The cell growth inhibition rate Inh%=(DMSO well - compound treatment well)/(DMSO well - background well)×100 was calculated, and the cell growth IC50 value was obtained by fitting with GraphPad Prism 5 .
# A375 cells = assay: CDK9 cell activity test (Cell Titer-GLO cell growth inhibition), A375; assay type: cell-based; conditions: Homo sapiens, A-375, 72 hours
# Method: as §1, §2
# Mia Paca-2 cells = assay: CDK9 cell activity test (Cell Titer-GLO cell growth inhibition), Mia Paca-2; assay type: cell-based; conditions: Homo sapiens, 72 hours
# Method: as §1, §2
# MV-4-11 cells = assay: CDK9 cell activity test (Cell Titer-GLO cell growth inhibition), MV-4-11; assay type: cell-based; conditions: Homo sapiens, MV4-11, 72 hours
# Method: as §1
# When MV-4-11 cells, HCC-1187 cells, Mia Paca-2 cells and A375 cells grew to 80% -90% confleuncy, they were digested with trypsin, resuspended, counted and diluted to a certain cell density with complete medium, and inoculated into 96-well plate at 100 µL/well. With complete medium as background control, they were cultured overnight in a saturated humidity incubator with 37°C and 5% CO2. The compound was diluted to 200-fold of the final concentration using DMSO, 3 µL of DMSO storage solution of the above compound was added to 197 µL of complete medium, 50 µL of compound diluted in medium was added to cells in each well, and cultivated in a saturated humidity incubator with 37°C and 5% CO2 for 72 hours. After 72 hours, the culture plate was placed at room temperature for equilibrium, and 40 µl of Cell Titer-GLO® reagent was added to each well. The cells were lysed by mixing evenly for 2 minutes using a shaker, incubated at room temperature for 60 minutes to stabilize the chemiluminescence signal, and the chemiluminescence was read by PE EnVision microtiter plate reader. The cell growth inhibition rate Inh%=(DMSO well - compound treatment well)/(DMSO well - background well)×100 was calculated, and the cell growth IC50 value was obtained by fitting with GraphPad Prism 5 .
# CDK9 = CDK9 (Homo sapiens, UniProt P50750); assay: experiment of inhibiting kinase activity (Caliper mobility shift assay), CDK9; assay type: biochemical
# Chain of CDK9 (P50750 whole entry): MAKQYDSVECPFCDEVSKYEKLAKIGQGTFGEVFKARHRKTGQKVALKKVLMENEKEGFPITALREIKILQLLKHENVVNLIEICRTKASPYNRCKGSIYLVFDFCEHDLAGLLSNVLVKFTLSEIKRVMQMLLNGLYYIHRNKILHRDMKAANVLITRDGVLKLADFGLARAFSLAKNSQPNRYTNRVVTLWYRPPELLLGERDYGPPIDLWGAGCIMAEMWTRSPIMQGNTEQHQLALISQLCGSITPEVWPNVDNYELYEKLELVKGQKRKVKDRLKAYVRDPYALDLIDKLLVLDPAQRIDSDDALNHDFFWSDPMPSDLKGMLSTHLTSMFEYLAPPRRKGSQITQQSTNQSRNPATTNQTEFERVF
# Chain of CDK9 (O60563 whole entry partner): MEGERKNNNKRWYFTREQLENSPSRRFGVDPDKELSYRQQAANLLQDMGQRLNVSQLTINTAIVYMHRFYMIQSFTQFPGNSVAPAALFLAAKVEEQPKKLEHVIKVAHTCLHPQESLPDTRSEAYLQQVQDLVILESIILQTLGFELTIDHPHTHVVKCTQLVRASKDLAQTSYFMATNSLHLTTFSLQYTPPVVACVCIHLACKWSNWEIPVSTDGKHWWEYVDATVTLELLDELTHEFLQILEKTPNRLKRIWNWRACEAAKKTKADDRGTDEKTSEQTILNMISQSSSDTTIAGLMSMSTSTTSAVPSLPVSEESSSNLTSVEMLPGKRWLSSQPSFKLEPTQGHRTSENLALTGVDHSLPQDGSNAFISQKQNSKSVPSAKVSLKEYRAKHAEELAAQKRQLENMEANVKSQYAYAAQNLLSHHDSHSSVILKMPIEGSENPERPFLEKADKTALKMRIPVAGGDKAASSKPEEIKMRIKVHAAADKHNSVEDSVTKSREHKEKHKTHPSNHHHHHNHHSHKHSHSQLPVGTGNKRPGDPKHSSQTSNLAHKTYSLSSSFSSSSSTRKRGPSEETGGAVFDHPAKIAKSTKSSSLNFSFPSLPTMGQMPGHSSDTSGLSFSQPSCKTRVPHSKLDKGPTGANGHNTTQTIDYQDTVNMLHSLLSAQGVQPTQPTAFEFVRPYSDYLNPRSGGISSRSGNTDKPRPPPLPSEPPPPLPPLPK
# Summary of the method: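 Mobility-shift readout of substrate conversion; % inhibition normalized to uninhibited-enzyme wells (0%) and buffer-only background wells. Dosing: single points at 10 and 100 nM, or 3-fold series from 10 µM (10 conc.), replicates. Kinase + compound 10 min RT, then ATP/substrate.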
# T1 sequence (Q62120 whole entry): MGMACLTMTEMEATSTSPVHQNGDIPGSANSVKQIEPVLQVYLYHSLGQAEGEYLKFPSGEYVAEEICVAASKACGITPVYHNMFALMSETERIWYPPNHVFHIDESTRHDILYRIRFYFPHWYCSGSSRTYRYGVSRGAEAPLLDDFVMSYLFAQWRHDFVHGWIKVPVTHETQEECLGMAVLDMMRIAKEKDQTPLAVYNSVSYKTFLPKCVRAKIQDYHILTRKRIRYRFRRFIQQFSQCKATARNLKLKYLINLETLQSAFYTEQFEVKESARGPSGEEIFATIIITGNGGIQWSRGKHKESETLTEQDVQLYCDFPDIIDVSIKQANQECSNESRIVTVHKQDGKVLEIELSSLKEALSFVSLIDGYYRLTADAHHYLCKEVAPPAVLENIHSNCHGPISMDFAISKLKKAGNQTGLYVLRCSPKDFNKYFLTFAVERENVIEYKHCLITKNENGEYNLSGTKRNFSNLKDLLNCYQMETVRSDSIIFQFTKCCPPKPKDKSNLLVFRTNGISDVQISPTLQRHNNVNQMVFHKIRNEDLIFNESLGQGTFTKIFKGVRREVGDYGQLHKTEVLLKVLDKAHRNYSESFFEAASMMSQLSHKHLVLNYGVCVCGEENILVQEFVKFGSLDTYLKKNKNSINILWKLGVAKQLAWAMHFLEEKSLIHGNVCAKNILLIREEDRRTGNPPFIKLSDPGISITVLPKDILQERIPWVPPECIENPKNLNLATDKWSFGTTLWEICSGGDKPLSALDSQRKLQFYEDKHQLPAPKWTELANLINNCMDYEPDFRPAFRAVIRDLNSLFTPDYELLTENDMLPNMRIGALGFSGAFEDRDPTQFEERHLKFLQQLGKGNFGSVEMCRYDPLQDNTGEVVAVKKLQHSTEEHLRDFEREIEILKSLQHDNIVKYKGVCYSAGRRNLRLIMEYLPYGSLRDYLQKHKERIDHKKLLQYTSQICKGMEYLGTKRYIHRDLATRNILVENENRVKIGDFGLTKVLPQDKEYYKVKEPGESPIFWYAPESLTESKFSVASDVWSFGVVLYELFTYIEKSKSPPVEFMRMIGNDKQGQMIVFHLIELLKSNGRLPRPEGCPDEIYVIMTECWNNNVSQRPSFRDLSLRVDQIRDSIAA
EC50 (JAK2),IC50 (HCC-1187 cells; first HCC1187 column (c2)),IC50 (HCC-1187 cells; second HCC1187 column (c3)),IC50 (A375 cells),IC50 (Mia Paca-2 cells),IC50 (MV-4-11 cells),"inhibition at 0.01 µM (CDK9; at 10 nM, read-out: inhibition rate CDK9)","inhibition at 0.1 µM (CDK9; at 100 nM, read-out: inhibition rate CDK9)","IC50 (CDK9; kinase activity assay, Table 3)",SMILES
500 to 5000 nM,–,–,–,–,–,–,–,–,"CN1CCOCCOc2cc(Nc3nc(-c4cnn(C(CC#N)C5CCCC5)c4)c4cc[nH]c4n3)ccc2OCC1 (stereo not drawn) [Example 26, 3-cyclopentyl-3-(4-(2-((7-methyl-2,3,6,7,8,9-hexahydro-5H-benzo[b][1,4,7]trioxa[10]azacyclododecan-13-yl)amino)-7H-pyrrolo[2,3-d]pytimidin-4-yl)-1H-pyrazol-1-yl)propionitrile]"
–,1000 to 5000 nM,100 to 1000 nM,100 to 1000 nM,100 to 1000 nM,< 100 nM,40 to 79%,> 80%,< 50 nM,"CN1CCOCCOc2cc(Nc3ncc(F)c(-c4ccc(C(=O)NCC#N)cc4)n3)ccc2OCC1 [Example 16, N-(cyanomethyl)-4-(5-fluoro-2-((7-methyl-2,3,6,7,8,9-hexahydro-5H-benzo[b][1,4,7]trioxa[10]azacyclododecan-13-yl)amino)pyrimidin-4-yl)benzamide]"
